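Cells were grown in 96-well plates and exposed to each compound for 48 hours at five concentrations; endpoints were interpolated linearly between bracketing concentrations, or set to the highest concentration if not reached. GI50 marks 50% less growth. TGI is the concentration that stops growth completely.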

Some test systems named below: HCC-2998 colon; HCT-15 colon; HT29 colon; M14 melanoma; MCF7 breast; OVCAR-3 ovarian; OVCAR-8 ovarian; RXF 393 renal; SN12C renal; SR leukemia.
What all share (assay): NCI anticancer screen, dose series, 48 h

In the case of `CCN(Cc1ccc(C)cc1)c1ccc(CO)c(Cl)c1`, the GI50 in the experiment with HCC-2998 colon is 10.4 µM; in the experiment on HCT-15 colon, 6.41 µM; in the experiment with HT29 colon it was 2.49 µM; with M14 melanoma, 10.5 µM; in the experiment with MCF7 breast, 0.191 µM; in the experiment with OVCAR-3 ovarian it was 0.605 µM. The GI50 in the experiment with OVCAR-8 ovarian was 10.6 µM; in the experiment on RXF 393 renal it was 4.71 µM; in the experiment on SN12C renal, 10.6 µM; with SR leukemia, 17.6 µM. Further, the TGI was determined as 22.5 µM in the experiment with HCC-2998 colon; 23.2 µM in the experiment on HCT-15 colon; 14.7 µM in the experiment with HT29 colon; 23.7 µM in the experiment with M14 melanoma; 11 µM with MCF7 breast; 5.31 µM in the experiment on OVCAR-3 ovarian. The TGI in the experiment with OVCAR-8 ovarian turned out to be 26.1 µM; with RXF 393 renal, 18.9 µM; in the experiment with SN12C renal, 25.8 µM; with SR leukemia, 46.8 µM.

As to `O=C1CSCc2sccc21`, the TGI in the experiment with HCC-2998 colon, with HCT-15 colon, in the experiment on HT29 colon, in the experiment with M14 melanoma, with MCF7 breast and in the experiment with OVCAR-3 ovarian was over 100 µM in each case. Also, the TGI in the experiment with OVCAR-8 ovarian, in the experiment on RXF 393 renal, with SN12C renal and in the experiment on SR leukemia was over 100 µM each time.

As for `Cc1cc2nc3c4cc(O)ccc4n(CCN(C)C)c3nc2cc1C`, the GI50 is 1.71 µM in the experiment with HCC-2998 colon; 0.611 µM in the experiment on HCT-15 colon; 0.475 µM in the experiment on HT29 colon; 0.523 µM in the experiment on M14 melanoma; 0.45 µM in the experiment with MCF7 breast; 1.77 µM in the experiment with OVCAR-3 ovarian. For the same molecule, the GI50 with OVCAR-8 ovarian was 0.494 µM; with RXF 393 renal, 0.828 µM; with SN12C renal it was 0.586 µM; in the experiment on SR leukemia, 0.309 µM. The TGI is 4.71 µM in the experiment with HCC-2998 colon; 4.1 µM in the experiment on HCT-15 colon; 2.31 µM in the experiment on HT29 colon; 1.91 µM in the experiment on M14 melanoma; 3.26 µM in the experiment with MCF7 breast; 8.19 µM with OVCAR-3 ovarian. The TGI stood at 4.73 µM with OVCAR-8 ovarian, 2.47 µM in the experiment on RXF 393 renal and 12.4 µM with SN12C renal.

Consider `COc1ccc2c(c1OC)C[C@@H]1c3c(cc4c(c3-2)OCO4)CCN1C`, for which the TGI was 40.3 µM in the experiment on HCC-2998 colon; over 100 µM in the experiment on HCT-15 colon; 41.3 µM in the experiment on HT29 colon; 84.8 µM with M14 melanoma; over 100 µM with MCF7 breast; over 100 µM in the experiment with OVCAR-3 ovarian. For the same molecule, the TGI in the experiment on OVCAR-8 ovarian is over 100 µM; in the experiment on RXF 393 renal it was 66.4 µM; in the experiment with SN12C renal, over 100 µM; in the experiment on SR leukemia, 54.3 µM.

For the molecule `COC[C@@H](N=C1NC(=O)/C(=C/c2ccc3ncccc3c2)S1)c1ccccc1`, the GI50 with HCC-2998 colon was 12.3 µM; in the experiment on HCT-15 colon, 7.01 µM; in the experiment on HT29 colon, 8.83 µM; in the experiment on M14 melanoma, 13 µM; with MCF7 breast, 7.24 µM; in the experiment on OVCAR-3 ovarian, 9.38 µM. The GI50 was 10.2 µM with OVCAR-8 ovarian, 6.47 µM in the experiment with RXF 393 renal, 8.52 µM in the experiment on SN12C renal and 3.64 µM in the experiment with SR leukemia. Besides, the TGI with HCC-2998 colon, in the experiment on HCT-15 colon, with HT29 colon, with M14 melanoma, in the experiment on MCF7 breast and in the experiment with OVCAR-3 ovarian was over 25 µM each time. Moreover, the TGI in the experiment on OVCAR-8 ovarian was over 25 µM; in the experiment with RXF 393 renal it was over 24.2 µM; in the experiment with SN12C renal it was over 25 µM; with SR leukemia, 15.6 µM.

As for `CC(=O)O[C@H]1C(=O)[C@@]2(C)C(C(OC(=O)c3ccccc3)[C@]3(O)C[C@H](OC(=O)C(OC(=O)CCCC(=O)NCCCN(C)C)C(NC(=O)c4ccccc4)c4ccccc4)C(C)=C1C3(C)C)C1(OC(C)=O)COC1C[C@@H]2O` (some centres undefined), the TGI was 0.0309 µM with HCC-2998 colon; 19.2 µM in the experiment with HCT-15 colon; 2.22 µM in the experiment on HT29 colon; 25 µM in the experiment with M14 melanoma; 48.5 µM in the experiment on MCF7 breast; under 0.01 µM in the experiment with OVCAR-3 ovarian. The TGI was 15.3 µM in the experiment with OVCAR-8 ovarian, 3.27 µM with RXF 393 renal, 75.5 µM with SN12C renal and 58.2 µM in the experiment on SR leukemia.

As for `COc1cc(/C=C\c2cc(OC)c(OC)c(OC)c2)cc(N/C=C\C(=O)c2ccc(OC(F)(F)F)cc2)c1OC`, the GI50 with HCC-2998 colon was 3.71 µM; in the experiment on HCT-15 colon, 3.42 µM; with HT29 colon, 3.07 µM; in the experiment with M14 melanoma, 3.46 µM; with MCF7 breast, 4.08 µM; in the experiment on OVCAR-3 ovarian it was 3.48 µM. Besides, the GI50 with OVCAR-8 ovarian is 4.59 µM; in the experiment with RXF 393 renal it was 2.18 µM; in the experiment on SN12C renal, 4.85 µM; in the experiment with SR leukemia it was 2.75 µM. For the same molecule, the TGI in the experiment with HCC-2998 colon was over 100 µM; in the experiment with HCT-15 colon, over 100 µM; in the experiment on HT29 colon it was 16.5 µM; with M14 melanoma it was over 100 µM; with MCF7 breast, over 100 µM; in the experiment on OVCAR-3 ovarian, 10.6 µM. The TGI with OVCAR-8 ovarian is over 100 µM; in the experiment on RXF 393 renal, 7.17 µM; in the experiment on SN12C renal, over 100 µM; in the experiment with SR leukemia it was 41.1 µM.

These data come from PubChem BioAssay (NCI).
